Results on six compounds are retold here after patent US20100215747A1, “NANOPARTICLES COMPRISING IONIZABLE, POORLY WATER SOLUBLE CELLULOSIC POLYMERS” (priority 2007, published 2010).

Series [1] is described as follows: Solubility of drug in water. The series is classed as physicochemical.
A short description of the next series: Log P value of drug. In kind it is physicochemical. The conditions noted are these: octanol/water. The text has this:
The first property of hydrophobic drugs is that they are extremely hydrophobic. Log P, defined as the base 10 logarithm of the ratio of the drug solubility in octanol to the drug solubility in water, is a widely accepted measure of hydrophobicity. By “extremely hydrophobic” is meant that the Log P value of the drug is at least 4.0, preferably at least 4.5, and most preferably at least 5.0. Log P may be measured experimentally or calculated using methods known in the art. When using a calculated value for Log P, the highest value calculated using any generally accepted method for calculating Log P is used. Calculated Log P values are often referred to by the calculation method, such as C log P, A log P, and M log P. The Log P may also be estimated using fragmentation methods, such as Crippen's fragmentation method (27 J. Chem. Inf. Comput. Sci. 21 (1987)); Viswanadhan's fragmentation method (29 J. Chem. Inf. Comput. Sci. 163 (1989)); or Broto's fragmentation method (19 Eur. J. Med. Chem.-Chim. Theor. 71 (1984). Preferably the Log P value is calculated by using the average value estimated using Crippen's, Viswanadhan's, and Broto's fragmentation methods.

How the values of series [2] were obtained:
By “solids concentration” is meant the amount of solid polymer added to the PBS solution to measure the solubility of the polymer in the PBS solution. An appropriate PBS solution is an aqueous solution comprising 20 mM sodium phosphate (Na2HPO4), 47 mM potassium phosphate (KH2PO4), 87 mM NaCl, and 0.2 mM KCl, adjusted to pH 6.5 with NaOH. A test to determine whether the polymer is poorly water soluble may be performed as follows. The polymer is initially present in bulk form with average particle sizes of greater than 1 micron. The solid polymer alone is added to a PBS solution to achieve a solids concentration of 0.2 mg/mL polymer in the PBS solution. The PBS solution is stirred for approximately 1 hour at room temperature. Next, a nylon 0.45 μm filter is weighed, and the polymer solution is filtered. The filter is dried overnight at 40° C., and weighed the following morning. The amount of polymer dissolved is calculated from the amount of polymer added to the PBS solution minus the amount of polymer remaining on the filter (mg).
The degree of water solubility of Polymers 2, 3, and 5 were evaluated as follows. […] The amount of dissolved polymer was calculated from amount of polymer added to the PBS solution minus the amount of polymer remaining on the filter (mg). […]

≈ marks a conversion by molar mass, not a printed value. Where two headings read alike, the source gives them in different places.

For orientation: solubility means how much of the substance goes into solution per volume. As to `Cc1ccc(-c2cc(C(F)(F)F)nn2-c2ccc(S(N)(=O)=O)cc2)cc1` [Drug 1, 4-[5-(4-methylphenyl)-3-(trifluoromethyl)-1H-pyrazol-1-yl]benzenesulfonamide], in series [1] (read-out: solubility in water), the solubility was about 3.5 µg/mL (≈ 9.18 µM).

For the compound `CC[C@@H]1C[C@H](N(Cc2cc(C(F)(F)F)cc(C(F)(F)F)c2)C(C)=O)c2cc(C(F)(F)F)ccc2N1C(=O)OC(C)C` [Drug 2, [2R,4S]-4-[acetyl-(3,5-bis-trifluoromethyl-benzyl)-amino]-2-ethyl-6-trifluoromethyl-3,4-dihydro-2H-quinoline-1-carboxylic acid isopropyl ester], in series [1] (read-out: solubility in water), the solubility was under 0.01 µg/mL.

One may read the logP as a log measure of how a compound divides between an organic and an aqueous phase. Low readings indicate a more hydrophilic compound, high ones a more lipophilic compound. As to `O=C1NC(=O)C(c2ccccc2)(c2ccccc2)N1` [Drug 3, diphenylhydantoin], the solubility in series [1] (pH 7.5, aqueous buffer, read-out: solubility in water at pH 7.5) is about 22 µg/mL (≈ 87.2 µM). This compound also returned a logP in “Log P value of drug” of 2.47.

Regarding `O=C1Cc2cc(CCN3CCN(c4nsc5ccccc45)CC3)c(Cl)cc2N1` [Drug 4], the solubility in series [1] (read-out: solubility in water) was about 0.15 µg/mL (≈ 0.363 µM). In “Log P value of drug”, the logP is about 3.6.

For carboxy methyl ethyl cellulose [CP6], the “Solubility (mg/mL) at pH 6.5” value in series [2] came out at 0.2 mg/mL.

On to cellulose acetate trimellitate [CP5], for which the “Solubility (mg/mL) at pH 6.5” value in series [2] was determined as 0.2 mg/mL.
